Read-outs that look alike come from different tables or passages of the source.
Columns and labels:
Format in all cases: in vivo
Zymoseptoria tritici = assay: Leaf Blotch of Wheat (SEPTTR) disease control on wheat seedlings; settings: for pest or weed control at 100 µg/mL: High Volume (100 ppm); for pest or weed control at 121.5 g/ha: Low Volume (121.5 g/H)
Method in brief: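 Compounds in acetone/water (1:9, 110 ppm Triton X-100) sprayed to run-off on Yuma wheat seedlings at first-leaf stage, with Septoria tritici spores inoculated before or after treatment. Plants held at 100% RH (dark then lighted dew chamber, 20° C), then in greenhouse at 20° C; % control from disease severity on 1st leaves versus untreated.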

Uncinula necator = assay: Grape Powdery Mildew (UNCINE) disease control; settings: 100 ppm, 1 Day Protectant
Phakopsora pachyrhizi = assay: Asian Soybean Rust (PHAKPA) disease control; settings: 25 ppm
Method: Example H: Evaluation of Fungicidal Activity: Asian Soybean Rust (Phakopsora pachyrhizi; Bayer Code […]) Technical grades of materials were dissolved in acetone, which were then mixed with nine volumes of water containing 0.011% Tween 20. The fungicide solutions were applied onto soybean seedlings using an automated booth sprayer to run-off. All sprayed plants were allowed to air dry prior to further handling. Soybean plants (variety Williams 82) were grown in soil-less Metro mix, with one plant per pot. Two weeks old seedlings were used for testing. Plants were inoculated either 3 days prior to or 1 day after fungicide treatments. Plants were incubated for 24 h in a dark dew room at 22° C. and 100% relative humidity then transferred to a growth room at 23° C. for disease to develop. Disease severity was assessed on the sprayed leaves.

Rhyncosporium secalis = assay: Barley Scald (RHYNSE) disease control; settings: 100 ppm, 1 Day Protectant
Method: Technical grades of materials were dissolved in acetone, which were then mixed with nine volumes of water containing 110 ppm Triton X-100. The fungicide solutions were applied onto wheat seedlings using an automated booth sprayer to run-off. All sprayed plants were allowed to air dry prior to further handling. All fungicides were evaluated using the aforementioned method for their activity vs. all target diseases, unless stated otherwise. Wheat leaf blotch and brown rust activity were also evaluated using track spray applications, in which case the fungicides were formulated as EC formulations, containing 0.1% Trycol 5941 in the spray solutions. Wheat plants (variety Yuma) were grown from seed in a greenhouse in 50% mineral soil/50% soil-less Metro mix until the first leaf was fully emerged, with 7-10 seedlings per pot. These plants were inoculated with an aqueous spore suspension of Septoria tritici either prior to or after fungicide treatments. After inoculation the plants were kept in 100% relative humidity (one day in a dark dew chamber followed by two to three days in a lighted dew chamber at 20° C.) to permit spores to germinate and infect the leaf. The plants were then transferred to a greenhouse set at 20° C. for disease to develop. When disease symptoms were fully expressed on the 1st leaves of untreated plants, infection levels were assessed on a scale of 0 to 100 percent disease severity. Percent disease control was calculated using the ratio of disease severity on treated plants relative to untreated plants. Example K: Evaluation of Fungicidal Activity: Barley Scald (Rhyncosporium secalis; Bayer Code […]) Barley seedlings (variety Harrington) were propagated in soil-less Metro mix, with each pot having 8 to 12 plants, and used in the test when first leaf was fully emerged. Test plants were inoculated by an aqueous spore suspension of Rhyncosporium secalis 24 hr after fungicide treatments. After inoculation the plants were kept in a dew room at 20° C. with 100% relative humidity for 48 hr. […]

Glomerella lagenarium = assay: Cucumber Anthracnose (COLLLA) disease control; settings: 100 ppm, 1 Day Protectant
Method: Technical grades of materials were dissolved in acetone, which were then mixed with nine volumes of water containing 110 ppm Triton X-100. The fungicide solutions were applied onto wheat seedlings using an automated booth sprayer to run-off. All sprayed plants were allowed to air dry prior to further handling. All fungicides were evaluated using the aforementioned method for their activity vs. all target diseases, unless stated otherwise. Wheat leaf blotch and brown rust activity were also evaluated using track spray applications, in which case the fungicides were formulated as EC formulations, containing 0.1% Trycol 5941 in the spray solutions. Wheat plants (variety Yuma) were grown from seed in a greenhouse in 50% mineral soil/50% soil-less Metro mix until the first leaf was fully emerged, with 7-10 seedlings per pot. These plants were inoculated with an aqueous spore suspension of Septoria tritici either prior to or after fungicide treatments. After inoculation the plants were kept in 100% relative humidity (one day in a dark dew chamber followed by two to three days in a lighted dew chamber at 20° C.) to permit spores to germinate and infect the leaf. The plants were then transferred to a greenhouse set at 20° C. for disease to develop. When disease symptoms were fully expressed on the 1st leaves of untreated plants, infection levels were assessed on a scale of 0 to 100 percent disease severity. Percent disease control was calculated using the ratio of disease severity on treated plants relative to untreated plants. Example N: Evaluation of Fungicidal Activity: Cucumber Anthracnose (Glomerella lagenarium; Anamorph: Colletotrichum lagenarium; Bayer Code COLLLA) Cucumber seedlings (variety Bush Pickle) were propagated in soil-less Metro mix, with each pot having one plant, and used in the test when 12 to 14 days old. Test plants were inoculated with an aqueous spore suspension of Colletotrichum lagenarium 24 hr after fungicide treatments. […]

Venturia inaequalis = assay: Apple Scab (VENTIN) disease control; settings: 100 ppm, 1 Day Protectant
[1] = 24 h, 1 Day Protectant, read-out: SEPTTR disease control, 1 DP
[2] = 72 h, 3 Day Curative, read-out: SEPTTR disease control, 3 DC

Row | Compound | pest or weed control at 100 µg/mL (Zymoseptoria tritici; [1]) [%] | pest or weed control at 121.5 g/ha (Zymoseptoria tritici; [1]) [%] | pest or weed control at 100 µg/mL (Zymoseptoria tritici; [2]) [%] | pest or weed control at 121.5 g/ha (Zymoseptoria tritici; [2]) [%] | UNCINE disease control, 1DP (Uncinula necator) | PHAKPA disease control, 1DP (Phakopsora pachyrhizi; 1 Day Protectant) | PHAKPA disease control, 3DC (Phakopsora pachyrhizi; 3 Day Curative) | RHYNSE disease control, 1DP (Rhyncosporium secalis) | COLLLA disease control, 1DP (Glomerella lagenarium) | VENTIN disease control, 1DP (Venturia inaequalis)
1 | CCC[C@H]1OCC[C@H](NC(=O)c2nccc(OC)c2OCOC(C)=O)C(=O)O[C@@H](C)[C@@H]1Cc1ccccc1 [Compound 17] | > 70 | > 70 | > 70 | > 70 | A (>70) | A (>70) | A (>70) | B (≦70) | A (>70) | B (≦70)
2 | CCCC[C@H]1OCC[C@H](NC(=O)c2nccc(OC)c2OC(C)=O)C(=O)O[C@@H](C)[C@@H]1Cc1ccccc1 [Compound 2] | – | > 70 | – | > 70 | – | – | – | A (>70) | A (>70) | –
3 | COc1ccnc(C(=O)N[C@H]2CCO[C@H](Cc3ccccc3)[C@@H](Cc3ccccc3)[C@H](C)OC2=O)c1OC(C)=O [Compound 3] | – | > 70 | – | > 70 | – | – | – | B (≦70) | A (>70) | –

Reference: patent US9686984B2, “Macrocyclic picolinamides as fungicides” (DOW AGROSCIENCES LLC, priority 2014, dated 2017)
